According to PubChem BioAssay (NCI):
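Test compounds were applied to cells in 96-well plates for 48 hours at 5 doses. GI50 marks 50% less growth. TGI: total growth inhibition.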

Experiments:
Test in all cases: NCI tumour cell line growth inhibition, 48 h
[1] = system: HS 578T breast
[2] = system: RPMI-8226 leukemia
[3] = system: NCI-H23 lung
[4] = system: SN12C renal
[5] = system: HT29 colon
[6] = system: HOP-92 NSCLC
[7] = system: KM12 colon
[8] = system: SNB-75 CNS
[9] = system: HCT-116 colon
[10] = system: SW-620 colon
[11] = system: SR leukemia
[12] = system: OVCAR-4 ovarian
[13] = system: NCI-H522 lung
[14] = system: A498 renal
[15] = system: A549 NSCLC
[16] = system: MCF7 breast
[17] = system: SF-539 CNS
[18] = system: SF-268 CNS
[19] = system: SF-295 CNS
[20] = system: UACC-257 melanoma
[21] = system: MALME-3M melanoma
[22] = system: SNB-19 CNS
[23] = system: OVCAR-8 ovarian
[24] = system: DU-145 prostate
[25] = system: T-47D breast
[26] = system: SK-MEL-5 melanoma
[27] = system: MDA-MB-435
[28] = system: UO-31 renal
[29] = system: K-562 leukemia
[30] = system: SK-OV-3 ovarian
[31] = system: NCI-H226 lung
[32] = system: HL-60(TB) leukemia
[33] = system: 786-0 renal
[34] = system: IGROV1 ovarian
[35] = system: MDA-MB-231 breast
[36] = system: NCI/ADR-RES ovarian
[37] = system: U251 CNS
[38] = system: PC-3 prostate
[39] = system: RXF 393 renal
[40] = system: M14 melanoma
[41] = system: UACC-62 melanoma
[42] = system: TK-10 renal
[43] = system: CAKI-1 renal
[44] = system: CCRF-CEM leukemia
[45] = system: HCT-15 colon
[46] = system: NCI-H460 lung
[47] = system: MDA-N
[48] = system: COLO 205 colon
[49] = system: BT-549 breast
[50] = system: OVCAR-5 ovarian
[51] = system: EKVX NSCLC
[52] = system: SK-MEL-28 melanoma
[53] = system: OVCAR-3 ovarian
[54] = system: HOP-62 NSCLC
[55] = system: MOLT-4 leukemia
[56] = system: LOX IMVI melanoma
[57] = system: SK-MEL-2 melanoma
[58] = system: ACHN renal

## CC(O)CN(CCN(CC(C)O)CC(C)O)CC(C)O.O=[N+]([O-])O.[Cu+2] (stereo unspecified)
[1]
  GI50: > 100 µM
  TGI: > 100 µM
[2]
  GI50: > 100 µM
  TGI: > 100 µM
[3]
  GI50: > 100 µM
  TGI: > 100 µM
[4]
  GI50: > 100 µM
  TGI: > 100 µM
[5]
  GI50: > 100 µM
  TGI: > 100 µM
[6]
  GI50: > 100 µM
  TGI: > 100 µM
[7]
  GI50: > 100 µM
  TGI: > 100 µM
[8]
  GI50: > 100 µM
  TGI: > 100 µM
[9]
  GI50: > 100 µM
  TGI: > 100 µM
[10]
  GI50: > 100 µM
  TGI: > 100 µM
[11]
  GI50: > 100 µM
  TGI: > 100 µM
[12]
  GI50: 73.6 µM
  TGI: > 100 µM
[13]
  GI50: > 100 µM
  TGI: > 100 µM
[14]
  GI50: 30.9 µM
  TGI: 63.3 µM
[15]
  GI50: 46.5 µM
  TGI: > 100 µM
[16]
  GI50: 93.1 µM
  TGI: > 100 µM
[17]
  GI50: > 100 µM
  TGI: > 100 µM
[18]
  GI50: > 100 µM
  TGI: > 100 µM
[19]
  GI50: 9.07 µM
  TGI: > 100 µM
[20]
  GI50: > 100 µM
  TGI: > 100 µM
[21]
  GI50: > 100 µM
  TGI: > 100 µM
[22]
  GI50: 30.5 µM
  TGI: 74.5 µM
[23]
  GI50: > 100 µM
  TGI: > 100 µM
[24]
  GI50: > 100 µM
  TGI: > 100 µM
[25]
  GI50: > 100 µM
  TGI: > 100 µM
[26]
  GI50: 24.3 µM
  TGI: 58.2 µM
[27]
  GI50: > 100 µM
  TGI: > 100 µM
[28]
  GI50: > 100 µM
  TGI: > 100 µM
[29]
  GI50: > 100 µM
  TGI: > 100 µM
[30]
  GI50: > 100 µM
  TGI: > 100 µM
[31]
  GI50: > 100 µM
  TGI: > 100 µM
[32]
  GI50: > 100 µM
  TGI: > 100 µM
[33]
  GI50: > 100 µM
  TGI: > 100 µM
[34]
  GI50: > 100 µM
  TGI: > 100 µM
[35]
  GI50: > 100 µM
  TGI: > 100 µM
[36]
  GI50: > 100 µM
  TGI: > 100 µM
[37]
  GI50: > 100 µM
  TGI: > 100 µM
[38]
  GI50: > 100 µM
  TGI: > 100 µM
[39]
  GI50: > 100 µM
  TGI: > 100 µM
[40]
  GI50: > 100 µM
  TGI: > 100 µM
[41]
  GI50: > 100 µM
  TGI: > 100 µM
[42]
  GI50: > 100 µM
  TGI: > 100 µM
[43]
  GI50: > 100 µM
  TGI: > 100 µM
[44]
  GI50: > 100 µM
  TGI: > 100 µM
[45]
  GI50: > 100 µM
  TGI: > 100 µM
[46]
  GI50: 99.2 µM
  TGI: > 100 µM
[47]
  GI50: > 100 µM
  TGI: > 100 µM
[48]
  GI50: > 100 µM
  TGI: > 100 µM
[49]
  GI50: > 100 µM
  TGI: > 100 µM
[50]
  GI50: > 100 µM
  TGI: > 100 µM
[51]
  GI50: 67.3 µM
  TGI: > 100 µM
[52]
  GI50: > 100 µM
  TGI: > 100 µM
[53]
  GI50: > 100 µM
  TGI: > 100 µM
[54]
  GI50: > 100 µM
  TGI: > 100 µM
[55]
  GI50: > 100 µM
  TGI: > 100 µM
[56]
  GI50: > 100 µM
  TGI: > 100 µM
[57]
  GI50: > 100 µM
  TGI: > 100 µM
[58]
  GI50: > 100 µM
  TGI: > 100 µM
